Test results published in patent US20250353873A1, “COMPOUNDS AND METHODS FOR MODULATING APOE EXPRESSION” (Ionis Pharmaceuticals, Inc., priority 2024, published 2025).
Strand notation (5' to 3'): a small letter for the sugar, then the base; units joined by * are phosphorothioate-linked, units joined directly phosphodiester-linked; [ ] holds rarer units or linkages, { } end groups; capitals alone tell only the bases. [ms] = mesyl phosphoramidate linkage; e = 2'-O-(2-methoxyethyl) (MOE); k = constrained ethyl (cEt); [5mC] = 5-methylcytosine; d = 2'-deoxy (DNA)

How the values were obtained:
human APOE RNA [1] = experiment: Dose-dependent inhibition of human APOE RNA in differentiated SH-SY5Y cells, free uptake, 5 days (Example 5); assay type: cell-based; details: 5 days (Table 13)
Procedure: Modified oligonucleotides selected from the examples above were tested at various doses in differentiated SH-SY5Y cells. The modified oligonucleotides were tested in a series of experiments that had the same culture conditions.
Differentiated SH-SY5Y cells plated at a density of 10,000 cells per well were treated by free uptake with various concentrations of modified oligonucleotide as specified in the tables below. […] APOE RNA levels were measured using the human primer probe set RTS3073 (described herein above). APOE RNA levels were normalized to human PPIA. Human PPIA was amplified using human primer probe set mk_cycloA_2nd (described herein above). Results are presented as percent APOE RNA, relative to the amount of APOE RNA in untreated control cells (% UTC). The half maximal inhibitory concentration (IC50) of each modified oligonucleotide was calculated in GraphPad Prism 10 (GraphPad Software, San Diego, CA) and is also presented in the tables below.

human APOE RNA [2] = experiment: Activity in APOE C57BL/6NTac-Apoeem7250 knock-in mice, single ICV bolus, 8 weeks (Example 11); assay type: in vivo; details: for reduction of human APOE RNA in the cortex: APOE knock-in mouse model, 8 weeks post administration, assay of Example 11; for APOE RNA (% control) Cortex / APOE RNA (% control) Spinal Cord: single ICV bolus 300 μg, 8 weeks post treatment, normalized to mouse Ppia
In short: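 Cortical and spinal cord human APOE RNA quantified by RT-qPCR 8 weeks after a single 300 μg ICV dose in knock-in mice, Ppia-normalized. Values are percent of levels in PBS-treated animals.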

human APOE RNA [3] = experiment: Activity in APOE C57BL/6NTac-Apoeem7250 knock-in mice, single ICV bolus, 16 weeks (Example 12); assay type: in vivo; details: single ICV bolus 300 μg, 16 weeks post treatment, normalized to mouse Ppia
In short: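 A single 300 μg intracerebroventricular dose was given, with PBS-treated mice as reference; cortical and spinal cord tissue was taken 16 weeks later. RT-qPCR quantified human APOE RNA, Ppia-normalized, expressed relative to PBS animals (% control).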

human APOE RNA [4] = experiment: Activity in APOE C57BL/6NTac-Apoeem7250 knock-in mice, single ICV bolus, 4 weeks (Example 10); assay type: in vivo; details: C57BL/6NTac-Apoeem7250 knock-in mice, single ICV bolus 300 μg
In short: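 Human APOE RNA, quantified by real-time RT-PCR with RTS3073 and normalized to mouse Ppia, was read in cortical brain and spinal cord 4 weeks post dosing. Dosing was a single ICV bolus of 300 μg per knock-in mouse; values are % of PBS-treated animals.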

| Substance | APOE RNA (% UTC) (human APOE RNA [1]; 5 nM) | APOE RNA (% UTC) (human APOE RNA [1]; 13 nM) | APOE RNA (% UTC) (human APOE RNA [1]; 33 nM) | APOE RNA (% UTC) (human APOE RNA [1]; 82 nM) | APOE RNA (% UTC) (human APOE RNA [1]; 205 nM) | APOE RNA (% UTC) (human APOE RNA [1]; 512 nM) | APOE RNA (% UTC) (human APOE RNA [1]; 1,280 nM) | APOE RNA (% UTC) (human APOE RNA [1]; 3,200 nM) | APOE RNA (% UTC) (human APOE RNA [1]; 8,000 nM) | APOE RNA (% UTC) (human APOE RNA [1]; 20,000 nM) | IC50 (human APOE RNA [1]) [nM] | reduction of human APOE RNA in the cortex (human APOE RNA [2]) [%] | APOE RNA (% control) Cortex (human APOE RNA [2]) [% control] | APOE RNA (% control) Spinal Cord (human APOE RNA [2]) [% control] | APOE RNA (% control) Cortex (human APOE RNA [3]; cortex) [% control] | APOE RNA (% control) Spinal Cord (human APOE RNA [3]; spinal cord) [% control] | APOE RNA (% control) Cortex (human APOE RNA [4]; 4 weeks (Table 21)) [% control] | APOE RNA (% control) Cortex (human APOE RNA [4]; 4 weeks (Table 22)) [% control] | APOE RNA (% control) Spinal Cord (human APOE RNA [4]; 4 weeks (Table 21)) [% control] | APOE RNA (% control) Spinal Cord (human APOE RNA [4]; 4 weeks (Table 22)) [% control] |
| --- | --- | --- | --- | --- | --- | --- | --- | --- | --- | --- | --- | --- | --- | --- | --- | --- | --- | --- | --- | --- |
| Aks^mCeoTeoTesGesGksTdsGdzAdzAdzTds^mCdsTdsTdsTdsAdzTksTksAesAe (kA*e[5mC]eTeT*eG*kG*dT*dG[ms]dA[ms]dA[ms]dT*d[5mC]*dT*dT*dT*dA[ms]kT*kT*eA*eA) [Compound No. 1809635] | 67 | 62 | 52 | 43 | 33 | 27 | 40 | 28 | 20 | 20 | 50 | 74 | 26 | 15 |  |  |  |  |  |  |
| 1693105: 6-10-4 MOE gapmer CTTGGTGAATCTTTATTAAA, linkages sosssszzzssssszssss (e[5mC]*eTeT*eG*eG*eT*dG[ms]dA[ms]dA[ms]dT*d[5mC]*dT*dT*dT*dA[ms]dT*eT*eA*eA*eA) [compound 1693105] |  |  |  |  |  |  |  |  |  |  |  |  | 58 | 43 | 65 | 44 | 54 | 65 | 51 | 87 |
| TezTeoGeoGksTdsGdzAdzAdzTds^mCdsTdsTdsTdsAdzTksTksAesAesAes^mCe (antisense eT[ms]eTeGkG*dT*dG[ms]dA[ms]dA[ms]dT*d[5mC]*dT*dT*dT*dA[ms]kT*kT*eA*eA*eA*e[5mC]) [Compound No. 1809814] | 91 | 66 | 61 | 63 | 47 | 53 | 39 | 39 | 41 | 33 | 550 | 64 | 36 | 33 |  |  |  |  |  |  |
